Data on five compounds can be found in patent US6750224B1, “Antibacterial optically pure benzoquinolizine carboxylic acids, processes, compositions and methods of treatment” (priority 1999, dated 2004).

One data set is described as follows: Phototoxicity studies. Particulars: in vivo.
Another data set has as its system MRSE STE-22. Nature of the data set: In-vitro antimicrobial activity test (MIC, NCCLS). The format is cell-based, Staphylococcus epidermidis. The source says:
(§1) The test method was in accordance with the standard NCCLS protocol.

The nature of the next data set: in vivo. Particulars: mouse; for AUC: po, 30 mg/kg. More on the design: species or system Swiss mice. The protocol: The blood levels of RS-(±)-Nadifloxacin and S-(−)-Nadifloxacin administered orally to Swiss mice at a dose of 30mg/kg are shown in Table 3 with respect to the AUC (μg/ml.hr), monitored from 15 minutes to 4 hours.
Data set [1] is described as follows: Acute intravenous toxicity in mice.
The next data set relates to MRSA STA-4. Nature of the data set: In-vitro antimicrobial activity test (MIC, NCCLS). The format is cell-based, Staphylococcus aureus.
Excerpt: as §1

In data set [2] the test system is Mupirocin-resistant Staph STA-34. The experiment in a line: In-vitro antimicrobial activity test (MIC, NCCLS). Format: cell-based, Staphylococcus aureus.
Excerpt: as §1

The next data set deals with Propioni bacterium acnes. Nature of the data set: In-vitro antimicrobial activity test (MIC, NCCLS). Format: cell-based.
Excerpt: as §1

The test system of another data set is Serratia marcescens. Nature of the data set: In-vitro antimicrobial activity test (MIC, NCCLS). The format is cell-based.
Excerpt: as §1

For data set [3], the system named is Staphylococcus aureus ATCC 25923. Nature of the data set: In-vitro antimicrobial activity test (MIC, NCCLS). The format is cell-based.
Excerpt: as §1

In a further data set the test system is Mycobacterium avium. The experiment in a line: In-vitro antimicrobial activity test (MIC, NCCLS). Format: cell-based.
Excerpt: as §1

A further data set relates to Haemophilus influenzae. The experiment in a line: In-vitro antimicrobial activity test (MIC, NCCLS). The format is cell-based.
Excerpt: as §1

A further data set deals with Enterococcus faecium. Nature of the data set: In-vitro antimicrobial activity test (MIC, NCCLS). The format is cell-based.
Excerpt: as §1

Data set [4] has as its system Viridans group Streptococci. The experiment in a line: In-vitro antimicrobial activity test (MIC, NCCLS). The format is cell-based.
Excerpt: as §1

The test system of the next data set is Corynebacterium jeikeium. Nature of the data set: In-vitro antimicrobial activity test (MIC, NCCLS). The format is cell-based.
Excerpt: as §1

For data set [5], the system named is Mycobacterium intracellulare. The experiment in a line: In-vitro antimicrobial activity test (MIC, NCCLS). The format is cell-based.
Excerpt: as §1

For data set [6], the system named is Mycobacterium tuberculosis ATCC 27294. The experiment in a line: In-vitro antimicrobial activity test (MIC, NCCLS). Format: cell-based.
Excerpt: as §1

The test system of the next data set is Streptococcus pyogenes. Nature of the data set: In-vitro antimicrobial activity test (MIC, NCCLS). The format is cell-based.
Excerpt: as §1

Data set [7] relates to Chryseobacterium meningosepticum. The experiment in a line: In-vitro antimicrobial activity test (MIC, NCCLS). The format is cell-based.
Excerpt: as §1

Data set [8] has as its system Escherichia coli ATCC 25922. Nature of the data set: In-vitro antimicrobial activity test (MIC, NCCLS). The format is cell-based.
Excerpt: as §1

Data set [9] deals with Streptococcus pneumoniae ATCC 6303. Nature of the data set: In-vitro antimicrobial activity test (MIC, NCCLS). The format is cell-based.
Excerpt: as §1

Another data set has as its system Bacteroides fragilis. The experiment in a line: In-vitro antimicrobial activity test (MIC, NCCLS). The format is cell-based.
Excerpt: as §1

Another data set deals with Pseudomonas aeruginosa. Nature of the data set: In-vitro antimicrobial activity test (MIC, NCCLS). Format: cell-based.
Excerpt: as §1

For data set [10], the system named is Enterococcus faecalis ATCC 29212. Nature of the data set: In-vitro antimicrobial activity test (MIC, NCCLS). Format: cell-based.
Excerpt: as §1

The nature of data set [11]: Phlebitis on repeated i.v. administration in rats. The format is in vivo. Conditions: doses double those of the sodium salt. The source says: This feature would make S-(−)-9-fluoro-6,7-dihydro-8-(4-hydroxypiperidin-1-yl)-5-methyl-1-oxo-1H,5H- benzo[i,j]quinolizine-2-carboxylic acid arginine salt 0.25 H2O and S-(−)-9-fluoro-6,7-dihydro-8-[4-(hydroxy)-1-piperidin-1-yl)-5-methyl-1-oxo-1H,5H-benzo[i,j]quinolizine-2-carboxylic acid arginine salt 0.75 H2O suitable for long term i.v. administration which is commonly undertaken for critically ill patients or patients in intensive care unit.

In data set [12] the test system is Gram-positive and Gram-negative bacteria. Conditions: cited from earlier work.
The test system of another data set is Serratia marcescens 2702. The experiment in a line: Effect of pH on potency of fluoroquinolones (MIC at pH 5.5 and 7.0). The format is cell-based. Particulars: MIC pH 7 vs pH 5.5. An excerpt:
(§2) The test method was in accordance with the standard NCCLS protocol employing test media adjusted at pH 5.5 and 7.0.

A further data set has as its system P. rettgeri N 1764. Described as above. The format is cell-based. Conditions: MIC pH 7 vs pH 5.5.
Excerpt: as §2

For data set [13] the following is noted: in vivo.
In data set [14] the test system is human liver cell-line Hep-G2. The experiment in a line: Human liver cell line cytotoxicity assay (Minimum Toxic Dose). Particulars: 3 hours exposure, 4 days incubation, Almar blue. The format is cell-based. The protocol: The procedure involved cultivation of cells of human liver cell-line Hep-G2 in DMEM medium containing 5% foetal bovine and exposure to various concentrations of trovafloxacin and S-(−)-Nadifloxacin for 3 hours. The drug containing medium was then replaced with a fresh medium and cells were incubated in 5% CO2 atmosphere at 37° C. for 4 days. Almar blue dye which is an indicative of active respiration was then added to individual sample to access the toxicity of the drugs. The hepatotoxic potential of a drug is expressed in terms of Minimum Toxic Dose (MTD) which is defined as minimum concentration of a drug which brings about inhibition of colour change from blue to pink.

The subject of data set [15] is S.aureus strain bearing Nor A efflux pump. The format is cell-based. Particulars: Nor A efflux pump strain vs strain devoid of efflux pump. The protocol: Using this set of MIC values, % loss in potency due to efflux was calculated for each of the fluoroquinolone in Table 5
Data set [16] deals with Gram-positive pathogens such as staphylococci and enterococci, and Gram-negative pathogens such as E.coli, Klebsiella, Proteus, Serratia, Citrobacter, and …. Nature of the data set: Antibacterial potency (MIC) at acidic pH of 5.5, summary. Format: cell-based. Particulars: acidic pH of 5.5, some organisms.
For data set [17] the following is noted: mouse, in vivo.
For data set [18] the following is noted: pH 6.8.

≈ marks a conversion by molar mass, not a printed value. Marks after values point to notes of the source that are not given here.

As usually defined, the AUC is the area under the concentration-time curve, a measure of exposure. As a reminder, the LD50 is the dose at which mortality reaches 50%.

In the case of `C[C@@H]1CN(c2c(F)c(N)c3c(=O)c(C(=O)O)cn(C4CC4)c3c2F)C[C@H](C)N1` [Sparfloxacin], the “phototoxic dosage, times lower than S-(−)-Nadifloxacin” value in “Phototoxicity studies” was 25 times.

`CC1CCc2c(N3CCC(O)CC3)c(F)cc3c(=O)c(C(=O)O)cn1c23` (racemic) [RS-(±)-Nadifloxacin, (±)-9-fluoro-8-(4-hydroxypiperidin-1-yl)-5-methyl-6,7-dihydro-1-oxo-1H-5H-benzo[i,j]quinolizine-2-carboxylic acid]: the MIC with MRSE STE-22 amounted to 1.56 µg/mL (≈ 4.33 µM); in the data set with MRSA STA-4 it was 0.8 µg/mL (≈ 2.22 µM); in data set [2], 1.56 µg/mL (≈ 4.33 µM); with Propioni bacterium acnes, 0.2 µg/mL (≈ 0.555 µM); against Serratia marcescens it was 1.56 µg/mL (≈ 4.33 µM); in [3], 0.05 µg/mL (≈ 0.139 µM). Further, the MIC in the data set on Mycobacterium avium was determined as 6.25 µg/mL (≈ 17.3 µM); in the data set with Haemophilus influenzae it was 0.05 µg/mL (≈ 0.139 µM); against Enterococcus faecium it was 0.8 µg/mL (≈ 2.22 µM); in [4], 0.4 µg/mL (≈ 1.11 µM); against Corynebacterium jeikeium, 0.2 µg/mL (≈ 0.555 µM); in data set [5] it was 3.12 µg/mL (≈ 8.66 µM). For the same compound, the MIC in data set [6] was 1.56 µg/mL (≈ 4.33 µM); against Streptococcus pyogenes it was 0.4 µg/mL (≈ 1.11 µM); in data set [7] it was 1.56 µg/mL (≈ 4.33 µM); in data set [8], 0.8 µg/mL (≈ 2.22 µM); in data set [9], 0.4 µg/mL (≈ 1.11 µM); with Bacteroides fragilis, 3.12 µg/mL (≈ 8.66 µM). For the same compound, the MIC against Pseudomonas aeruginosa came out at 3.12 µg/mL (≈ 8.66 µM); in [10] it was 0.4 µg/mL (≈ 1.11 µM). Besides, the AUC in the data set “in vivo” (Swiss) was found to be 16900 ng·h/mL. This compound gave an LD50 in data set [1] (mouse, in vivo, iv) of 311 mg/kg.

For the compound `C[C@H]1CCc2c(N3CCC(O)CC3)c(F)cc3c(=O)c(C(=O)O)cn1c23.N=C(N)NCCC[C@H](N)C(=O)O.O` [Example 7, S-(−)-9-fluoro-6,7-dihydro-8-(4-hydroxypiperidin-1-yl)-5-methyl-1-oxo-1H,5H-benzo[i,j]quinolizine-2-carboxylic acid, arginine salt 0.25 H2O], in [11], the phlebitis result was “did not cause phlebitis”.

In the case of `C[C@H]1CCc2c(N3CCC(O)CC3)c(F)cc3c(=O)c(C(=O)O)cn1c23` [S-(−)-Nadifloxacin, S-(−)-9-fluoro-8-(4-hydroxy-piperidin-1-yl)-5-methyl-6,7-dihydro-1-oxo-1H,5H benzo[i,j]quinolizine-2-carboxylic acid], the MIC in the data set with MRSE STE-22 stood at 0.4 µg/mL (≈ 1.11 µM); in the data set with MRSA STA-4, 0.4 µg/mL (≈ 1.11 µM); in [2] it was 0.4 µg/mL (≈ 1.11 µM); in the data set with Propioni bacterium acnes, 0.1 µg/mL (≈ 0.277 µM); with Serratia marcescens, 0.4 µg/mL (≈ 1.11 µM); in data set [3] it was 0.025 µg/mL (≈ 0.0694 µM). The MIC in the data set with Mycobacterium avium came to 3.12 µg/mL (≈ 8.66 µM); with Haemophilus influenzae, 0.025 µg/mL (≈ 0.0694 µM); with Enterococcus faecium, 0.4 µg/mL (≈ 1.11 µM); in data set [4], 0.2 µg/mL (≈ 0.555 µM); against Corynebacterium jeikeium, 0.05 µg/mL (≈ 0.139 µM); in data set [5], 1.56 µg/mL (≈ 4.33 µM). Further, the MIC in [6] is 0.8 µg/mL (≈ 2.22 µM); in the data set on Streptococcus pyogenes, 0.2 µg/mL (≈ 0.555 µM); in data set [7], 0.8 µg/mL (≈ 2.22 µM); in [8], 0.2 µg/mL (≈ 0.555 µM); in data set [9] it was 0.2 µg/mL (≈ 0.555 µM); against Bacteroides fragilis, 0.8 µg/mL (≈ 2.22 µM). Also, the MIC against Pseudomonas aeruginosa was determined as 1.56 µg/mL (≈ 4.33 µM); in data set [10], 0.2 µg/mL (≈ 0.555 µM). Also, the “in-vitro activity compared with racemic Nadifloxacin” value in [12] is “approximtely twice as active”. In addition, the “% change in potency at pH 5.5, loss (−)/gain (+)” value with Serratia marcescens 2702 and with P. rettgeri N 1764 was 0.00% throughout. Also, the “oral bioavailability, times higher than RS-(±)-Nadifloxacin” value in “in vivo” is 2 times. In “in vivo”, this compound yielded an exposure (AUC) of 33580 ng·h/mL. In addition, the 50% lethal dose (LD50) in data set [1] (acute intravenous, mice) was >400* mg/kg. The phototoxicity potential entry in data set [13] is “negligible phototoxicity potential”. For the same compound, the “dosage tolerated by Hep-G-2 cells, times higher than trovafloxacin” value in [14] stood at 4 times. The “% loss in potency for S. aureus bearing Efflux pump” value in data set [15] amounted to 0%. Also, the “MIC improves by” value in data set [16] was 100%. Moreover, the “acute intravenous toxicity compared with RS-(±)-Nadifloxacin” value in data set [17] is “significantly lower”.

Regarding `CC(=O)O.C[C@@H](N)C(=O)OC1CCN(c2c(F)cc3c(=O)c(C(=O)O)cn4c3c2CC[C@@H]4C)CC1` [Example 30, 8-{4-[2(R)-Amino-propionyloxy]piperidin-1-yl}-9-fluoro-5(S)-methyl-6,7-dihydro-1-oxo-1H,5H-benzo[i,j]quinolizine-2-carboxylic acid, acetate], the Water solubility in [18] is >250 mg/mL.
